Measured values as given in patent US20170266289A1, “TOPICAL FORMULATION” (AbbVie Inc., priority 2014, published 2017).
Values joined by “and” are separate entries in the source; they are usually repeats but may differ in a detail not shown here. Equal values may be shown once. Read-outs that look alike come from different tables or passages of the source.

How the values were obtained:
[1] = In vitro release testing in […] plates, flux through polyester membrane; type: in vitro ADME
Description: (§1) Diffusion assays were performed using Franz Cells and […]® plates, with Tuffryn®, polycarbonate, or polyester membranes, as well as hairless mouse skin. HPLC was employed to analyze in vitro samples.
(§2) For in vitro release testing in […]® plates, a two-compartment well system was used, with an internal well having a membrane as the formulation compartment, and an outer well filled with receptor media (phosphate buffer with 2% BSA). The TRANS WELL® plates were then agitated in a temperature-controlled incubator with shaker. Samples were manually pulled at pre-determined intervals with a pipette. New media was added to the receptor well after each sampling to make up the volume loss.
(§3) Generally, flux is calculated by determining the amount of solute that diffuses across a membrane of known surface area per unit time. There are many ways to calculate this value. We measured solute concentration in known volumes of receiver media and calculated the total amount that diffused over the time course of the experiment.

[2] = In vitro release testing in […] plates, flux through polycarbonate membrane; type: in vitro ADME
Description: as §1, §2, §3

[3] = Plasma PK and skin concentration after topical application of gel-cream to shaved backs of rats; type: in vivo; conditions: for Cmax / AUC(0-t): topical or ocular, rat plasma; for Kp at 24 h: skin/plasma
Description: In order to assess the effect of the permeation enhancer on API delivery to the skin (topical delivery) and to the plasma (systamic delivery) in vivo, 177.8 mg of the subject topical formulation (177.8 μL of the 1% Compound 1 gel-cream, or about 1.778 mg of Compound 1) was applied to the backs of rats on a 4 cm^2 area of shaved skin. Plasma PK data was obtained during a period of about 24 hours following the topical application. See results in FIG. 9A, and the tables below.
The same experiment was repeated for a topical formulation using Compound 2 as the API. Also see FIG. 9B.

[4] = Optical microscopy examination of the formulations; type: physicochemical; conditions: increasing the Transcutol HP content; data not shown
Description: Thus maintaining a saturated solution with the presence of TRANSCUTOL HP™ is expected to increase in vitro flux and increase resultant skin exposures.

[5] = In vitro release testing in Franz Cells, flux through Tuffryn membrane; type: in vitro ADME
Description: as §1
Specifically, for the in vitro release testing in Franz Cells, vertical diffusion cells were filled with receptor media (phosphate buffer with 2% BSA). The receptor media was then agitated, with the exception of setup and sampling. Temperature is maintained at 32.5±2.0° C. Artificial membrane was then placed on the top of the cell, along with a dosage wafer, the formulation to be evaluated, and a glass sealing cap. A formulation permeability test was run in triplicate. Samples were collected at various programmed intervals, and sampling was an automated process by the system. Fresh media was pushed into the bottom of the cell while simultaneous sampling occurs from the top of the cell. All wells were sampled in a serial manner with the time of each sample recorded by the instrument.
as §3

[6] = test system: FITC-induced contact hypersensitivity (CHS); experiment: Topical treatment after FITC challenge in FITC-induced contact hypersensitivity, ear skin thickness; type: in vivo, mice; conditions: 4 hrs post FITC challenge
Description: Briefly, on Day 0, ears of experimental animals were sensitized with FITC. […] Naïve group animals received no treatment during the experiment. On Day 7, about 24 hours post FITC challenge, ear thickness (in mm) of all animals were measured. […]

Stability in plasma = type: in vitro ADME
Description: Note that, due to the fact that BMS DPP is unstable in the plasma, the total blood concentration of BMS DPP cannot be determined.

[7] = test system: FITC-induced contact hypersensitivity (CHS); experiment: Prophylactic topical treatment of FITC-induced contact hypersensitivity, ear skin thickness; type: in vivo, mice; conditions: 1 hr prior to FITC challenge
Description: Contact hypersensitivity (CHS) is an immunological response against a small chemical hapten. During the sensitization phase, dermal dendritic cells (DCs) and Langerhans cells take up the hapten peptide conjugate and process it and migrate to the draining lymph node, where they present the antigen (Ag) to naive T cells, leading to the formation of Ag-specific memory T cells. Subsequent contact with the same chemical results in the activation of memory T cells and the recruitment of inflammatory cells to the site of allergen exposure. This elicitation response is manifested as skin inflammation, which in a clinical context is called allergic contact dermatitis. One of the small chemical haptens is FITC. FITC-induced CHS is believed to be predominantly associated with the activation of Th2 cells. Upon challenging the skin with FITC in mice sensitized with FITC, it is believed that FITC-specific T cells are recruited to the skin and produce Th2 cytokines, including IL-4.
Briefly, on Day 0, ears of experimental animals were sensitized with FITC. On Day 6, ears of the treatment group animals (0.01%, 0.1%, and 1% treatment groups) were first provided topical treatment of the subject formulations one hour prior to the FITC challenge. Specifically, 20 μL total (10 μL inner ear, and 10 μL outer ear) of topical treatment were massaged all around the ear of each experimental animals prior to FITC epicutaneous application. […] Naïve group animals received no treatment during the experiment. On Day 7, about 24 hours post FITC challenge, ear thickness (in mm) of all animals were measured.
Betamethasone Dipropionate (BMS DPP) topical cream formulations with different concentrations (0.005%, 0.01%, 0.1%, and 1% w/w) were prepared according to Example 3.

[8] = individual rats 1-3, topical 177.8 mg/animal in Formulation A (no Transcutol HP), 24 hr after dose
[9] = individual rats 4-6, topical 177.8 mg/animal in Formulation B (10% Transcutol HP), 24 hr after dose

For `CC[C@@H]1C[C@H](NS(=O)(=O)C2CC2)C[C@@H]1c1nnc2cnc3[nH]ccc3n12` [Compound 1, N-((1S,3R,4S)-3-ethyl-4-(6H-pyrrolo[2,3-e][1,2,4]triazolo[4,3-a]pyrazin-1-yl)cyclopentyl)cyclopropanesulfonamide], the “Ratio Transcutol HP/no enhancer, Flux TRANSWELL Plate polyester membrane” value [1] was 1.33, the “Flux TRANSWELL Plate polyester membrane” value ([1]; Transcutol 10%) was 5.42 and the “Flux TRANSWELL Plate polyester membrane” value ([1]; no permeation enhancer) was 4.09. For the same compound, the “Ratio Transcutol HP/no enhancer, Flux TRANSWELL plate Polycarbonate membrane” value [2] was 1.35, the “Flux TRANSWELL plate Polycarbonate membrane” value ([2]; Transcutol 10%) was 11.46 and the “Flux TRANSWELL plate Polycarbonate membrane” value ([2]; no permeation enhancer) was 8.52. For the same compound, the Cmax ([3]; rat, plasma, 177.8 mg, 177.8 mg 1% gel-cream topical on 4 cm^2, 10% Transcutol HP) was 70.7 ng/mL, the Cmax ([3]; rat, plasma, 177.8 mg, 177.8 mg 1% gel-cream topical on 4 cm^2, no permeation enhancer) was 11.4 ng/mL and the AUC(0-t) ([3]; rat, plasma, 177.8 mg, 177.8 mg 1% gel-cream topical, 10% Transcutol HP) was 392 ng·h/mL. It also gave an AUC(0-t) ([3]; rat, plasma, 177.8 mg, 177.8 mg 1% gel-cream topical, no permeation enhancer) of 62.4 ng·h/mL, a concentration at 24 h ([3]; rat, skin, topical, 1.778 mg, rat skin, 177.8 mg 1% gel-cream topical, 10% Transcutol HP, read-out: Skin conc. 24 hr) of 25000 ng/g and a concentration at 24 h ([3]; rat, skin, topical, 1.778 mg, rat skin, 177.8 mg 1% gel-cream topical, no permeation enhancer, read-out: Skin conc. 24 hr) of 5340 ng/g. The “Ratio Transcutol HP/no enhancer, Plasma AUC0-t” value ([3]; rat, topical) was 6.28, the “Ratio Transcutol HP/no enhancer, Skin conc. 24 hr” value ([3]; rat, topical) was 4.67 and the “amount solubilized in the gel-cream formulation” value [4] was “solubilizes a greater amount”. The “Ratio Transcutol HP/no enhancer, Flux Franz Cells Tuffryn membrane” value [5] was 1.20, the “Flux Franz Cells Tuffryn membrane” value ([5]; Transcutol 10%) was 7.64 and the “Flux Franz Cells Tuffryn membrane” value ([5]; no permeation enhancer) was 6.34.
In the case of `CCC(=O)OCC(=O)[C@@]1(OC(=O)CC)[C@@H](C)C[C@H]2[C@@H]3CCC4=CC(=O)C=C[C@]4(C)[C@@]3(F)[C@@H](O)C[C@@]21C` [BMS DPP, Betamethasone Dipropionate], the “reduced ear skin thickness” value ([6]; Study 1, 0.1%) is reported as 95%, the “reduced ear skin thickness” value ([6]; Study 1, 1%) is reported as 96% and the “reduced ear skin thickness” value ([6]; Study 2, 0.01%) is reported as 92%. The “reduced ear skin thickness” value ([6]; Study 2, 0.1%) was 96%, the “reduced ear skin thickness, effect” value ([6]; combined Study 1 and 2, 0.01%) was 92% and the “reduced ear skin thickness, effect” value ([6]; combined Study 1 and 2, 0.1%) was 95%. For the same compound, the “reduced ear skin thickness, effect” value ([6]; combined Study 1 and 2, 1%) was 96%, the “stability in the plasma” value (Stability in plasma) was “unstable” and the “reduced ear skin thickness” value ([7]; Study 1, 0.01%) was 77%. The “reduced ear skin thickness” value ([7]; Study 1, 0.1%) was 93%, the “reduced ear skin thickness” value ([7]; Study 1, 1%) was 95% and the “reduced ear skin thickness” value ([7]; Study 2, 0.005%) was 61%. The “reduced ear skin thickness” value ([7]; Study 2, 0.01%) was 73%, the “reduced ear skin thickness” value ([7]; Study 2, 0.1%) was 93% and the “reduced ear skin thickness, effect” value ([7]; combined Study 1 and 2, 0.005%) was 61%. The “reduced ear skin thickness, effect” value ([7]; combined Study 1 and 2, 0.01%) was 75%, the “reduced ear skin thickness, effect” value ([7]; combined Study 1 and 2, 0.1%) was 93% and the “reduced ear skin thickness, effect” value ([7]; combined Study 1 and 2, 1%) was 95%.
For `CC[C@@H]1CN(C(=O)NCC(F)(F)F)C[C@@H]1c1cnc2cnc3[nH]ccc3n12` [Compound 2, (3S,4R)-3-ethyl-4-(3H-imidazo[1,2-a]pyrrolo[2,3-e]pyrazin-8-yl)-N-(2,2,2-trifluoroethyl)pyrrolidine-1-carboxamide], the “Plasma Conc.” value [3, 8] was 0.00 ng/mL, the “Skin Conc.” value [3, 8] was 2393 ng/g and 5908 ng/g and 7728 ng/g and the “Skin/Plasma Ratio” value ([3]; individual rats 4-6, Formulation B, 24 hr after dose) was 11076. For the same compound, the “Plasma Conc.” value [3, 9] was 4.46 ng/mL and 2.87 ng/mL and 0.00 ng/mL, the “Skin Conc.” value [3, 9] was 31734 ng/g and 16020 ng/g and the concentration at 24 h ([3]; rat, plasma, topical, 177.8 mg, mean of rats 1-3, Formulation A, 24 hr after dose, read-out: Plasma Conc., Mean) was 0 ng/mL. It also gave a concentration at 24 h ([3]; rat, plasma, topical, 177.8 mg, mean of rats 4-6, Formulation B, 24 hr after dose, read-out: Plasma Conc., Mean) of 2.44 ng/mL, a concentration at 24 h ([3]; rat, plasma, topical, 177.8 mg/animal, individual rats 1-3, topical 177.8 mg/animal in Formulation A (no Transcutol HP), 24 hr after dose, read-out: Plasma Conc.) of 0 ng/mL and a concentration at 24 h ([3]; rat, skin, topical, 177.8 mg, mean of rats 1-3, Formulation A, 24 hr after dose, read-out: Skin Conc., Mean) of 5340 ng/g. For the same compound, the concentration at 24 h ([3]; rat, skin, topical, 177.8 mg, mean of rats 4-6, Formulation B, 24 hr after dose, read-out: Skin Conc., Mean) was 25000 ng/g, the concentration at 24 h ([3]; rat, skin, topical, 177.8 mg/animal, individual rats 4-6, topical 177.8 mg/animal in Formulation B (10% Transcutol HP), 24 hr after dose, read-out: Skin Conc.) was 27100 ng/g and the Kp at 24 h ([3]; rat, topical, 177.8 mg, individual rats 4-6, Formulation B, 24 hr after dose, read-out: Skin/Plasma Ratio) was 6080. It also gave a Kp at 24 h ([3]; rat, topical, 177.8 mg, mean, Formulation B, 24 hr after dose, read-out: Skin/Plasma Ratio, Mean) of 8580.
